Source: patent publication US8519137B2, “Heteroaryl amides useful as inhibitors of voltage-gated sodium channels” (Vertex Pharmaceuticals Incorporated, priority 2007, dated 2013)
Like-named read-outs stand apart in the source and are kept apart here.

Columns and labels:
NaV1.3 [1] = molecular target: T1, NaV1.3 (Homo sapiens, UniProt Q9NY46); assay: VIPR optical membrane potential assay, NaV 1.3 inhibition; format: cell-based; parameters: expressed in transfected cells; host or cells: HEK293; details: activity against NaV 1.3 channel
Description: (§1) Compounds of the invention are useful as antagonists of voltage-gated sodium ion channels. Antagonist properties of test compounds were assessed as follows. Cells expressing the NaV of interest were placed into microtiter plates. After an incubation period, the cells were stained with fluorescent dyes sensitive to the transmembrane potential. The test compounds were added to the microtiter plate. The cells were stimulated with either a chemical or electrical means to evoke a NaV dependent membrane potential change from unblocked channels, which was detected and measured with trans-membrane potential-sensitive dyes. Antagonists were detected as a decreased membrane potential response to the stimulus. The optical membrane potential assay utilized voltage-sensitive FRET sensors described by Gonzalez and Tsien (See, Gonzalez, J. E. and R. Y. Tsien (1995) “Voltage sensing by fluorescence resonance energy transfer in single cells” Biophys J 69(4): 1272-80, and Gonzalez, J. E. and R. Y. Tsien (1997) “Improved indicators of cell membrane potential that use fluorescence resonance energy transfer” Chem Biol 4(4): 269-77) in combination with instrumentation for measuring fluorescence changes such as the Voltage/Ion Probe Reader (VIPR®) (See, Gonzalez, J. E., K. Oades, et al. (1999) “Cell-based assays and instrumentation for screening ion-channel targets” Drug Discov Today 4(9): 431-439).
(§2) C) VIPR® Optical Membrane Potential Assay Method with Electrical Stimulation
(§3) The following is an example of how NaV1.3 inhibition activity is measured using the optical membrane potential method#2. Other subtypes are performed in an analogous mode in a cell line expressing the NaV of interest.
HEK293 cells stably expressing NaV1.3 are plated into 96-well microtiter plates. After an appropriate incubation period, the cells are stained with the voltage sensitive dyes CC2-DMPE/DiSBAC2(3) as follows.
Reagents: • 100 mg/mL Pluronic F-127 (Sigma #P2443), in dry DMSO • 10 mM DiSBAC2(3) (Aurora #00-100-010) in dry DMSO • 10 mM CC2-DMPE (Aurora #00-100-008) in dry DMSO • 200 mM ABSC1 in H2O • Hank's Balanced Salt Solution (Hyclone #SH30268.02) supplemented with 10 mM HEPES (Gibco #15630-080)
2×CC2-DMPE=20 μM CC2-DMPE: 10 mM CC2-DMPE is vortexed with an equivalent volume of 10% pluronic, followed by vortexing in required amount of HBSS containing 10 mM HEPES. Each cell plate will require 5 mL of 2×CC2-DMPE. 50 μL of 2×CC2-DMPE is to wells containing washed cells, resulting in a 10 μM final staining concentration. The cells are stained for 30 minutes in the dark at RT.
2×DISBAC2(3) with ABSC1=6 μM DISBAC2(3) and 1 mM ABSC1: The required amount of 10 mM DISBAC2(3) is added to a 50 ml conical tube and mixed with 1 μL 10% pluronic for each mL of solution to be made and vortexed together. Then HBSS/HEPES is added to make up 2× solution. Finally, the ABSC1 is added.
The 2× DiSBAC2(3) solution can be used to solvate compound plates. Note that compound plates are made at 2× drug concentration. Wash stained plate again, leaving residual volume of 50 μL. Add 50 uL/well of the 2× DiSBAC2(3) w/ABSC1. Stain for 30 minutes in the dark at RT.
The electrical stimulation instrument and methods of use are described in ION Channel Assay Methods PCT/US01/21652, herein incorporated by reference. The instrument comprises a microtiter plate handler, an optical system for exciting the coumarin dye while simultaneously recording the coumarin and oxonol emissions, a waveform generator, a current-or voltage-controlled amplifier, and a device for inserting electrodes in well. Under integrated computer control, this instrument passes user-programmed electrical stimulus protocols to cells within the wells of the microtiter plate. […]
Target sequence in this assay (Q9NY46 whole entry): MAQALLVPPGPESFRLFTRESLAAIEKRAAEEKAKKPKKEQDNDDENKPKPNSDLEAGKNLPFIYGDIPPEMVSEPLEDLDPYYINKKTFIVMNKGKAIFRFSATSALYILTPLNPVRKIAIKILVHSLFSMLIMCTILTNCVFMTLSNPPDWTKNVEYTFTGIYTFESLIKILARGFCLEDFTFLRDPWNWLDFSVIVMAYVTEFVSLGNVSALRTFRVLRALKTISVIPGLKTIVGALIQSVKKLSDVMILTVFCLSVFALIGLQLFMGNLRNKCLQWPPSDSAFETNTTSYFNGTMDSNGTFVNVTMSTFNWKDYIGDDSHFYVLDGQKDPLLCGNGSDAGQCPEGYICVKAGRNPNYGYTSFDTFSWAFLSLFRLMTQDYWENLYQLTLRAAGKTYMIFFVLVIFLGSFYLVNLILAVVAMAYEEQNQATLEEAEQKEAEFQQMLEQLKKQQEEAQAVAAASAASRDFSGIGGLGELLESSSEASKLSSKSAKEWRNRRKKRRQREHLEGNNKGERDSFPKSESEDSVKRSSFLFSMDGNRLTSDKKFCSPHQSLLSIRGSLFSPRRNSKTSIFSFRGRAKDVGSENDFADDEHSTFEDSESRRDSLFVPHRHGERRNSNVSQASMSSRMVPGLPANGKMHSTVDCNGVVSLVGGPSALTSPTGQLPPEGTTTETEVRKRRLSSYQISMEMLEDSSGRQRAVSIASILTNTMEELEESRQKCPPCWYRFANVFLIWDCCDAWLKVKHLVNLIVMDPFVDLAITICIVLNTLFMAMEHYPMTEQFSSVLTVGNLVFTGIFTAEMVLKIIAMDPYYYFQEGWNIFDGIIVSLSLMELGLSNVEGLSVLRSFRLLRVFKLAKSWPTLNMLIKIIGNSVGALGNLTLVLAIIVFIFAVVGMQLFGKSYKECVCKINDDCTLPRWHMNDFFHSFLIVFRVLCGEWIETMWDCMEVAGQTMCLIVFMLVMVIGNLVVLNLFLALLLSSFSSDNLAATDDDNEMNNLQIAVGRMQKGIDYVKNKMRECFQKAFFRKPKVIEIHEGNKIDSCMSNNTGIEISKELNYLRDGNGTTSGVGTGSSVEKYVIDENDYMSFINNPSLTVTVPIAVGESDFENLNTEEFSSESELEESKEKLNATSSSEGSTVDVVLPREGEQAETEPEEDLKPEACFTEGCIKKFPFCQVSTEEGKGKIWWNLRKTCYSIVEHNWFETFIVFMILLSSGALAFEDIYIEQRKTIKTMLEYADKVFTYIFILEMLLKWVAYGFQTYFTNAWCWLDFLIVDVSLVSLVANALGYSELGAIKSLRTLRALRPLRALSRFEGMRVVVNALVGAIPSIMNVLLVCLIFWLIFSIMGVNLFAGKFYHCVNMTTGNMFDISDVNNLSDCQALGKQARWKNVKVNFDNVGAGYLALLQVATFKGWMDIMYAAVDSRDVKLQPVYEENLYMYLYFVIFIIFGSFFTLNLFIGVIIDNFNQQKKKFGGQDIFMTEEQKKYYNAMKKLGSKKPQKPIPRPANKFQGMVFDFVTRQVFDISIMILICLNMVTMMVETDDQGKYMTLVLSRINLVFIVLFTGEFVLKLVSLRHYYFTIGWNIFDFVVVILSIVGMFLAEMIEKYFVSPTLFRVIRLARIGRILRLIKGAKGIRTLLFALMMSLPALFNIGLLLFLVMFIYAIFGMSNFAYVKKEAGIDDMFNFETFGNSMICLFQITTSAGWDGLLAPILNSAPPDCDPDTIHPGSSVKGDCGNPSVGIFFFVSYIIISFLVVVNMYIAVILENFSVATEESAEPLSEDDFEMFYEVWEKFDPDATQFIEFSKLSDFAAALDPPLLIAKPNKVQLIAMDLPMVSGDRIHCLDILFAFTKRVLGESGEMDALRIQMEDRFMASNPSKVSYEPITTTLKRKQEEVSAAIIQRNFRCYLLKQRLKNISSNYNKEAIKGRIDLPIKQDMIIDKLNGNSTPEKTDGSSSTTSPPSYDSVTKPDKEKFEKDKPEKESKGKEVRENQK

NaV 1.7 channel = NaV 1.7 channel (Homo sapiens, UniProt Q15858); assay: Optical membrane potential assay, NaV 1.7 inhibition; format: cell-based; details: activity against NaV 1.7 channel
Description: as §1, §2, §3
(§4) The electrical stimulation instrument and methods of use are described in ION Channel Assay Methods PCT/US01/21652, herein incorporated by reference. The instrument comprises a microtiter plate handler, an optical system for exciting the coumarin dye while simultaneously recording the coumarin and oxonol emissions, a waveform generator, a current-or voltage-controlled amplifier, and a device for inserting electrodes in well. Under integrated computer control, this instrument passes user-programmed electrical stimulus protocols to cells within the wells of the microtiter plate.
(§5) Assay Protocol • 1 Insert or use electrodes into each well to be assayed. • 2. Use the current-controlled amplifier to deliver stimulation wave pulses for 3 s. Two seconds of pre-stimulus recording are performed to obtain the un-stimulated intensities. Five seconds of post-stimulation recording are performed to examine the relaxation to the resting state.
(§6) Data are analyzed and reported as normalized ratios of background-subtracted emission intensities measured in the 460 nm and 580 nm channels. Background intensities are then subtracted from each assay channel. Background intensities are obtained by measuring the emission intensities during the same time periods from identically treated assay wells in which there are no cells. The response as a function of time is then reported as the ratios obtained using the following formula: […]
(§7) The data is further reduced by calculating the initial (Ri) and final (Rf) ratios. These are the average ratio values during part or all of the pre-stimulation period, and during sample points during the stimulation period. The response to the stimulus , ρ=Rf/Ri is then calculated.
(§8) Control responses are obtained by performing assays in the presence of a compound with the desired properties (positive control) and in the absence of pharmacological agents (negative control). Responses to the negative (N) and positive (P) controls are calculated as above. The activity A of the assay well relative to positive and negative controls is defined as: […]

NaV1.8 [2] = molecular target: T2, NaV1.8 (Homo sapiens, UniProt Q9Y5Y9); assay: Optical membrane potential assay, NaV 1.8 inhibition; format: cell-based; details: activity against NaV 1.8 channel
Description: as §1, §2, §3, §4, §5, §6, §7, §8
Target sequence in this assay (Q9Y5Y9 whole entry): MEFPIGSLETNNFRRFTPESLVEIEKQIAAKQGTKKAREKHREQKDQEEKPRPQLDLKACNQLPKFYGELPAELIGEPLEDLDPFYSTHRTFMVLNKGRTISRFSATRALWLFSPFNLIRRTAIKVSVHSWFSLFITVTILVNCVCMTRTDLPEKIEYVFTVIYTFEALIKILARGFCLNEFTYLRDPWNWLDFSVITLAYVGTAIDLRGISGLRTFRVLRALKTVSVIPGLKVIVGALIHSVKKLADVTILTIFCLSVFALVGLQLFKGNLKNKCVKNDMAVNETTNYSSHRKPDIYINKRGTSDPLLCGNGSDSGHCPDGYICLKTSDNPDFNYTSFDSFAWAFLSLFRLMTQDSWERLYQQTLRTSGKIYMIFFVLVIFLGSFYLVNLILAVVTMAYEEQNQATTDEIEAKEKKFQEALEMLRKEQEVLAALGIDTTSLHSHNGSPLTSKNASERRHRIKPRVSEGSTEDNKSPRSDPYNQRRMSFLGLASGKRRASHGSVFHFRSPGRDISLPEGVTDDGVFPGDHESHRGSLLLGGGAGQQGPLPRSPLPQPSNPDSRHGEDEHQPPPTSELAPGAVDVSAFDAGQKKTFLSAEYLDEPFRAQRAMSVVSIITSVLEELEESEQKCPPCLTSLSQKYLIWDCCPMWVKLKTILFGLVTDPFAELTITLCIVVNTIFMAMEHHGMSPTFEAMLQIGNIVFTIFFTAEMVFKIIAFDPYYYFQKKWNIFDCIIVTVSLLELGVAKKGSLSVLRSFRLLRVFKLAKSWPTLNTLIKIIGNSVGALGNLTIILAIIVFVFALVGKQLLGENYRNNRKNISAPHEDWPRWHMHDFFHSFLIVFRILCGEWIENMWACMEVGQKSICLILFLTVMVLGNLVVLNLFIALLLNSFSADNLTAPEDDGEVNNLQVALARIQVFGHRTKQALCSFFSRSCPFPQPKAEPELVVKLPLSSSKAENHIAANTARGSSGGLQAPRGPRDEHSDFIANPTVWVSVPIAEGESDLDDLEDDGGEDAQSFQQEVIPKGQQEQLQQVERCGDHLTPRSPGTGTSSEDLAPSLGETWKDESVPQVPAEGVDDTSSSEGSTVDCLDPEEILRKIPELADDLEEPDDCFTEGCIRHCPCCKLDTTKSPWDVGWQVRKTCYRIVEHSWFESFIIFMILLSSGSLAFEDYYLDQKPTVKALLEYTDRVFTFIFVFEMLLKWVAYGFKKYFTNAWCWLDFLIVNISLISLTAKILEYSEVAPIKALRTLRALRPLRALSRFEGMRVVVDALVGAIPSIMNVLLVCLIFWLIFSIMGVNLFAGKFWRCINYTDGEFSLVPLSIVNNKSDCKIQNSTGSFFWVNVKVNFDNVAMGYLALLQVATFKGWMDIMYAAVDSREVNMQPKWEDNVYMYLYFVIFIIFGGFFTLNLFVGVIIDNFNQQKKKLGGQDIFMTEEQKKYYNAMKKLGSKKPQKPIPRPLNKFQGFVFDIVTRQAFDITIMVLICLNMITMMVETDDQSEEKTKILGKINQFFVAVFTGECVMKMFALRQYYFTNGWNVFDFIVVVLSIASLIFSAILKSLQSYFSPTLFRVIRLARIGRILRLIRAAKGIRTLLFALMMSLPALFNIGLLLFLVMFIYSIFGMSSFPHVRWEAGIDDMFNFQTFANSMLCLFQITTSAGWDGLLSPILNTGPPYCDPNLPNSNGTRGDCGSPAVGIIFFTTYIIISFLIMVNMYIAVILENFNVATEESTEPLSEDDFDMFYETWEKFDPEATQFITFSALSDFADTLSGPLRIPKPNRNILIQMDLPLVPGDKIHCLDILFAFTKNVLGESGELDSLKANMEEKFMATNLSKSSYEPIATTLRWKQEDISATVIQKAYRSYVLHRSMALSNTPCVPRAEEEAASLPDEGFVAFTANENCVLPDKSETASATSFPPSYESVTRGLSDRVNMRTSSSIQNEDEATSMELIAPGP

NaV1.2 = NaV1.2 (Homo sapiens, UniProt Q99250); details: read-out: TTX IC50; cited from earlier work
NaV1.6 = NaV1.6 (Homo sapiens, UniProt Q9UQD0); details: read-out: TTX IC50; cited from earlier work
NaV1.9 = NaV1.9 (Homo sapiens, UniProt Q9UI33); details: read-out: TTX IC50; cited from earlier work
NaV1.8 [3] = molecular target: T2, NaV1.8; details: read-out: TTX IC50; cited from earlier work
Target sequence in this assay (Q9Y5Y9 whole entry, looked up): as the sequence (Q9Y5Y9 whole entry) above

NaV1.1 = NaV1.1 (Homo sapiens, UniProt P35498); details: read-out: TTX IC50; cited from earlier work
NaV1.3 [4] = molecular target: T1, NaV1.3; details: read-out: TTX IC50; cited from earlier work
Target sequence in this assay (Q9NY46 whole entry, looked up): as the sequence (Q9NY46 whole entry) above

| Structure (SMILES) | IC50 (NaV1.3 [1]) [µM] | IC50 (NaV 1.7 channel) [µM] | IC50 (NaV1.8 [2]) [µM] | further results |
| --- | --- | --- | --- | --- |
| CC(C)(C)c1nnc(C(=O)Nc2cccc(S(N)(=O)=O)c2)s1 [Compound 23, 5-tert-Butyl-N-(3-sulfamoylphenyl)-1,3,4-thiadiazole-2-carboxamide] | > 20 | > 20 | > 20 | – |
| CC(C)(C)c1nc(C(=O)Nc2cccc(S(N)(=O)=O)c2)n(Cc2ccccc2)n1 [Compound 26, 5-tert-Butyl-2-benzyl-N-(3-(aminosulfonyl)phenyl)-2H-1,2,4-triazole-3-carboxamide] | > 20 | – | 10 to 20 | – |
| Cc1oc(C(C)(C)C)c(CO)c1C(=O)Nc1cccc(S(N)(=O)=O)c1 [Compound 13] | 10 to 20 | 10 to 20 | < 2 | – |
| Cc1oc(CC(C)C)c(CN2CCCC2)c1C(=O)Nc1cccc(S(N)(=O)=O)c1 [Compound 11] | 10 to 20 | 2 to 10 | 10 to 20 | – |
| Cc1ccc(OCc2occc2C(=O)Nc2cccc(S(N)(=O)=O)c2)cc1 [Compound 10] | > 20 | > 20 | – | – |
| Cc1nc(C(C)(C)C)sc1C(=O)Nc1cccc(S(N)(=O)=O)c1 [Compound 24] | > 20 | > 20 | – | – |
| Cc1oc(C(C)(C)C)cc1C(=O)Nc1cccc(S(N)(=O)=O)c1 [Compound 3] | > 20 | 10 to 20 | < 2 | – |
| NC1=N[C@H](O)[C@H]2[C@H]3O[C@]4(O)O[C@@H]([C@@H](O)[C@@]2(N1)[C@@H]4O)[C@]3(O)CO [TTX, tetrodotoxin] | – | – | – | IC50 (NaV1.2): 0.01 µM; IC50 (NaV1.6): 0.006 µM; IC50 (NaV1.9): 1 µM; IC50 (NaV1.8 [3]): > 50 µM; IC50 (NaV1.1): 0.01 µM; IC50 (NaV1.3 [4]): 0.015 µM |
| Cc1oc(CC(C)C)c(CN2CCCCC2)c1C(=O)Nc1cccc(S(N)(=O)=O)c1 [Compound 12] | 10 to 20 | 2 to 10 | 2 to 10 | – |
| NS(=O)(=O)c1cccc(NC(=O)c2ccc(-c3cccc(C(F)(F)F)c3)o2)c1 [Compound 29] | 2 to 10 | 10 to 20 | – | – |
| CC(C)(C)c1ccc(C(=O)Nc2cccc(S(N)(=O)=O)c2)cn1 [Compound 22, 6-tert-Butyl-N-(3-(aminosulfonyl)phenyl)pyridine-3-carboxamide] | > 20 | > 20 | 10 to 20 | – |
| NS(=O)(=O)c1cccc(NC(=O)c2cc(-c3ccccc3)on2)c1 [Compound 30] | – | 10 to 20 | – | – |
| Cc1oc(CC(C)C)c(CN2CCOCC2)c1C(=O)Nc1cccc(S(N)(=O)=O)c1 [Compound 7] | > 20 | 2 to 10 | 10 to 20 | – |
| NS(=O)(=O)c1cc(NC(=O)c2cc(-c3cccc(Cl)c3)oc2C(F)(F)F)ccc1Cl [Compound 20] | > 20 | – | – | – |
| Cc1coc(C)c1C(=O)Nc1cccc(S(N)(=O)=O)c1 [Compound 14] | > 20 | > 20 | > 20 | – |
| CC(C)(C)c1cc(C(=O)Nc2cccc(S(N)(=O)=O)c2)c(CN2CCCCC2)o1 [Compound 6] | > 20 | – | 2 to 10 | – |
| C[C@@H](c1ccc(F)cc1)N1CCN(Cc2oc(C(C)(C)C)cc2C(=O)Nc2cccc(S(N)(=O)=O)c2)CC1 [Compound 5] | 10 to 20 | – | – | – |
| NS(=O)(=O)c1cccc(NC(=O)c2cccnc2Oc2ccc(Cl)cc2)c1 [Compound 21] | > 20 | – | > 20 | – |
| NS(=O)(=O)c1cccc(NC(=O)c2cc(-c3ccc(Cl)cc3)cs2)c1 [Compound 19] | 10 to 20 | – | – | – |
| CCN(CC)Cc1oc(-c2ccccc2)cc1C(=O)Nc1cccc(S(N)(=O)=O)c1 [Compound 9] | 2 to 10 | 2 to 10 | 2 to 10 | – |
| COc1cccc(-c2cc(C(=O)Nc3cccc(S(N)(=O)=O)c3)no2)c1 [Compound 32] | – | > 20 | – | – |
| Cc1oc(C(C)(C)C)cc1C(=O)Nc1cccc(S(N)(=O)=O)c1 [Compound 18] | 10 to 20 | 10 to 20 | < 2 | – |
| Cc1oc(C(C)(C)C)nc1C(=O)Nc1cccc(S(N)(=O)=O)c1 [Compound 25] | > 20 | 10 to 20 | 10 to 20 | – |
| Cc1oc(C(C)(C)C)c(CN2CCOCC2)c1C(=O)Nc1cccc(S(N)(=O)=O)c1 [Compound 8] | > 20 | 10 to 20 | > 20 | – |
| COc1ccc(-c2cc(C(=O)Nc3cccc(S(N)(=O)=O)c3)on2)cc1 [Compound 31] | – | > 20 | – | – |
| Cn1nc(C(C)(C)C)nc1C(=O)Nc1cccc(S(N)(=O)=O)c1 [Compound 27] | > 20 | – | – | – |
